Results on three compounds are retold here after PMC6546852, “Carbonyl Reduction of Flubendazole in the Human Liver: Strict Stereospecificity, Sex Difference, Low Risk of Drug Interactions” (Frontiers in Pharmacology, 2019).

The target in data set [1] is T1, carbonyl reductase 1 (CBR1) (Homo sapiens, UniProt P16152).
T1 sequence (P16152 2-277 limits assumed): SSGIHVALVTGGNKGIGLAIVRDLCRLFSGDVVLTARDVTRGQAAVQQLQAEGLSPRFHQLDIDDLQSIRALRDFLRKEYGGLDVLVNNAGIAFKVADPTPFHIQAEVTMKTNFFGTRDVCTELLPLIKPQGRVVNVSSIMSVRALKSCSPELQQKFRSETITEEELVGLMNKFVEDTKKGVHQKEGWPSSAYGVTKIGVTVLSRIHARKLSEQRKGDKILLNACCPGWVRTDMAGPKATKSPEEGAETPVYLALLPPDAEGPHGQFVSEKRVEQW
The data set is described as follows: Inhibition of flubendazole reduction in pooled human liver cytosol by CBR1 inhibitors. Particulars: 10 µM FLU, NADPH, inhibitor 0-50 µM. Format: biochemical.

Data set [2] deals with T2, human recombinant CBR1 (Homo sapiens, UniProt P16152).
T2 construct: purchased MyBioSource (San Diego, CA, USA)
T2 sequence (P16152 1-277): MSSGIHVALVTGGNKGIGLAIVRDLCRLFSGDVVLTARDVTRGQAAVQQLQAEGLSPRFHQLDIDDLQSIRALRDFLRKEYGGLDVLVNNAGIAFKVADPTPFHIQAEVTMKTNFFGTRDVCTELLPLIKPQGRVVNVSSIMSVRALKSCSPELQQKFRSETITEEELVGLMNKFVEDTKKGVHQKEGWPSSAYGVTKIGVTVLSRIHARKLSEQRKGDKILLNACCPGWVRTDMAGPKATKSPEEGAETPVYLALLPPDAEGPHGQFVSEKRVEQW
The data set can be described thus: Specific activity of human recombinant CBR1 toward substrates (NADPH consumption at 340 nm). It is filed as biochemical. Particulars: 10 µM substrate. As for the experimental part: The human recombinant CBR1 activity was assayed using a slight modification of previously published method (Mate et al., [2008]). The assay was performed in four replicates and was repeated three times. […] The activity of CBR1 was assessed using 10-μM concentration of the substrates, MEN, DOX, and FLU. The consumption of NADPH in the reaction mixture, which served for the assessment of the reductase activity, was determined spectrophotometrically at 340 nm at 37°C using the microplate reader Tecan Infinite M200.

The nature of data set [3]: Reduction of flubendazole in pooled human liver cytosol (chiral HPLC of FLUR enantiomers). Format: in vitro ADME. To be noted: human liver subcellular fractions. As for the experimental part:
Frozen pieces of liver were thawed at room temperature for up to 15 min and individual livers were homogenized in a 0.1 M sodium phosphate buffer, pH 7.4 at the ratio of 1:6 (v/v), using a Potter-Elvehjem homogenizer and sonication with Sonopolus (Bandelin, Germany). The suspension of the SW480 cells was homogenized using sonication only. The subcellular fractions were isolated by differential centrifugation of the homogenates (Gillette, [1971]) and stored at −80°C. Protein concentrations were assayed using the bicinchoninic acid (BCA) assay according to the manufacturer’s instructions (Sigma-Aldrich).
The cytosolic or microsomal fraction was incubated with FLU (10 μM). […]
Details concerning the HPLC analyses including validations were described in Nobilis et al. ([2008]). A chiral HPLC analysis was employed for the determination of reduced FLU (FLUR) enantiomers—(+)-FLUR and (−)-FLUR; concentrations of FLU, (+)-FLUR, and (−)-FLUR in the samples were determined using an internal standard method (I.S., albendazole). […] A tandem of an UV photodiode-array and a fluorescence detector was used for the determination of the abovementioned benzimidazole compounds.

Data set [4] can be described thus: Kinetics of flubendazole reduction ((+)-FLUR formation) in pooled human liver cytosol. Format: in vitro ADME. Particulars: for Clint (intrinsic clearance, V′max/K′m) / K’m (apparent Michaelis constant) / V’max (apparent maximal velocity of (+)-FLUR formation): pooled cytosol; for V’max (apparent maximal velocity of (+)-FLUR formation): 0-10 µM FLU.
Data set [5] has as its system doxorubicin reduction in pooled human liver cytosol. The data set can be described thus: Flubendazole effect on doxorubicin reduction (doxorubicinol formation) in pooled human liver cytosol. Particulars: for Doxorubicinol—cytosol (percent of the residual activity): 20 µM doxorubicin, NADPH. It is filed as biochemical.
In data set [6] the test system is doxorubicin reduction in cytosol of cancer cells SW480. The data set can be described thus: Flubendazole effect on doxorubicin reduction (doxorubicinol formation) in cytosol of cancer cells SW480. It is filed as biochemical, human. Particulars: for Doxorubicinol—SW480 (percent of the residual activity): 20 µM doxorubicin, NADPH.
The nature of data set [7]: Water solubility of flubendazole. It is filed as physicochemical. To be noted: allowed only 10 µM as highest concentration in incubation mixtures.
For data set [8], the system named is P-glycoprotein. The arrangement: method as in earlier work. Particulars: ref Spagnuolo et al., 2010, Kralova et al., 2013, Michaelis et al., 2015, 2016; cited from earlier work.

`O=c1cc(-c2ccc(O)c(O)c2)oc2cc(O)cc(O)c12` [LUT, luteolin]: the IC50 in data set [1] was found to be 8.21 ± 3.71 µM.

Compound `CC1=CC(=O)c2ccccc2C1=O` [MEN, menadione] registered an IC50 in data set [1] of 0.34 ± 0.26 µM. Besides, the “Specific activity of human recombinant CBR1 toward the substrate (in words)” value in data set [2] is recorded as “highest”.

In the case of `COC(=O)Nc1nc2cc(C(=O)c3ccc(F)cc3)ccc2[nH]1` [flubendazole, [5-(4-fluorobenzoyl)-1H-benzimidazol-2-yl]-carbamic acid methyl ester], in data set [3], the “Stereospecificity of carbonyl reduction (in words)” value is recorded as “strictly stereospecific”. Besides, the “Clint (intrinsic clearance, V′max/K′m)” value in data set [4] (NADH coenzyme) was determined as 0.000012 min⁻¹; in data set [4] (NADPH coenzyme), 0.000023 min⁻¹. The entries for the “K’m (apparent Michaelis constant)” value in data set [4] (NADH coenzyme) and in data set [4] (NADPH coenzyme) were 13.34 ± 3.07 µM and 19.91 ± 2.49 µM, respectively. For the same compound, the “V’max (apparent maximal velocity of (+)-FLUR formation)” value in data set [4] (NADH coenzyme) is 0.161 ± 0.024 nM/min; in data set [4] (NADPH coenzyme), 0.466 ± 0.043 nM/min. Moreover, the “Hepatic intrinsic clearance (in words)” value in data set [4] (pooled human liver cytosol) is recorded as “very low”. For the same compound, the “Specific activity of human recombinant CBR1 toward the substrate (in words)” value in data set [2] was “significantly lower than to MEN”. The figures for the “Doxorubicinol—cytosol (percent of the residual activity)” value in data set [5] (2 µM flubendazole) and in data set [5] (10 µM flubendazole) were 98.0 ± 3.4% and 91.4 ± 4.9%, respectively. Further, the “Inhibition of DOX reduction (in words)” value is “did not inhibit” in data set [5] (human liver cytosol, FLU 2 and 10 µM); “did not inhibit” in data set [6] (SW480 cytosol, FLU 2 and 10 µM). The “Doxorubicinol—SW480 (percent of the residual activity)” value in data set [6] (2 µM flubendazole) was 97.6 ± 3.4%; in data set [6] (10 µM flubendazole), 96.7 ± 2.7%. Further, the “Water solubility (in words)” value in data set [7] is on record as “poor”. Also, the “P-glycoprotein substrate (in words)” value in data set [8] is “not a substrate for P-glycoprotein”.
